{"source": "patent US11766470B2", "about": "“Manufacture, formulation and dosing of apraglutide” (VectivBio AG, priority 2020, dated 2023)", "key": {"[1]": {"assay": "Plasma concentration of apraglutide (LC-MS/MS) in Phase 2 SBS-IF trial (Example 5)", "format": "in vivo", "conditions": "human; for level at 168 h: sc, read-out: Mean plasma concentration before the second dose (Ctrough)", "excerpt": "Blood samples for analysis of plasma concentration of apraglutide and fasting plasma L-citrulline, a marker of enterocyte mass, were collected at baseline, during first and second treatment injection, four days after first treatment injection and at the end of treatment.\nApraglutide and L-citrulline were quantified using a validated LC-MS-based method. For apraglutide, the analytical method used solid-phase extraction purification of the intact apraglutide molecule and its internal standard. The compounds were identified and quantified using reversed-phase HPLC with MS/MS detection using an AB Sciex API 5000 quadrupole mass spectrometer. For samples below the limit of quantification of 5.00 ng/mL, compounds were identified and quantified using reversed-phase UHPLC with MS/MS detection using an AB Sciex API 5500 quadrupole mass spectrometer. For L-citrulline, the analytical method used protein precipitation extraction of L-Citrulline and its internal standard. The compounds were identified and quantified using Hilic HPLC with MS/MS detection using an AB Sciex API 5000 quadrupole mass spectrometer."}, "[2]": {"tested_on": "healthy adult volunteers", "assay": "Multiple dose study in healthy volunteers (Examples 4 and 7), pharmacodynamics: plasma citrulline, Bristol stool scale, body weight", "format": "in vivo, human", "conditions": "for Highest mean citrulline value following the first weekly SC dose: after four days", "description": "The endogenous marker citrulline was selected to assess the pharmacodynamic effect of apraglutide. Citrulline was detected in all baseline and post-dose samples. Three baseline citrulline samples were obtained during two baseline visits between screening and the first dosing day and before dosing on the first dosing day. […] At baseline, the mean citrulline range was 5.3825-5.6207 μg/mL for placebo, 5.3900-6.2028 μg/mL for 1 mg apraglutide, 4.8983-5.3023 μg/mL for 5 mg apraglutide and 5.0730-5.4690 μg/mL for 10 mg apraglutide. In the placebo group, the mean citrulline concentration remained relatively stable over the trial, ranging from 4.9735 to 5.8253 μg/mL.\nIn short, the first contrast tested compared the mean Rpre-dose at the first time point (week 1) to the pooled mean Rpre-dose over all remaining time points (week 2 to 6). The second contrast compared the mean at week 2 to the pooled mean over week 3 to 6, etc. Testing continued until the contrast was not statistically significant. The mean Rpre-dose at week 6 for 10 mg against mean Rpre-dose over week 5 (0.8720, 95% CI: 0.1590; 1.5850 and p=0.0172) was statistically significant.\nBesides citrulline, the Bristol stool scale and body weight were assessed as pharmacodynamic endpoints. In contrast to citrulline and weight, the Bristol stool scale is a discrete variable. Subjects assessed their stool in the past 24 hours using the Bristol stool scale ranging from constipation (type 1) to diarrhea (type 7). No stool in the past 24 hours was recorded as zero. As two subjects (assigned to either 1 or 5 mg) reported no stool preceding the first dose, the screening Bristol stool scale score was also taken into account when determining the baseline Bristol stool scale score.\nCitrulline, BSS and weight data are analyzed with a mixed model analysis of variance with fixed factors treatment, time and treatment by time, random factor subject, and the average prevalue as covariate. The average pre-value was calculated from all pre-values after screening and before dosing, except for BSS, where the screening value was also used to calculate the average baseline.\nFor all pharmacodynamic endpoints (citrulline, Bristol stool scale and weight), the pre-value has been used as covariate. The average pre-value was calculated from all pre-values after screening and before dosing, except for the Bristol stool scale, where the screening value was also used to calculate the average baseline. The average pre-value of citrulline was also used as covariate in the MCP-MOD, except in the Sigmoid Emax model. This was addressed by subtracting the pre-value times the slope of the linear model of the MCP part from the values of week 6."}, "[3]": {"conditions": "1 mg, over the whole trial period"}}, "note": "Read-outs that look alike come from different tables or passages of the source. Square brackets hold non-standard residues; d marks the D form. Peptide text beside a SMILES is read from it. ξ: configuration not given here. Ile(3ξ) = CCC(C)[C@H](N)C(=O)O; Thr(3ξ) = CC(O)[C@H](N)C(=O)O; Nle = CCCC[C@H](N)C(=O)O", "data": [{"smiles": "CCCC[C@H](NC(=O)[C@H](CCC(=O)O)NC(=O)[C@H](CC(=O)O)NC(=O)[C@H](CO)NC(=O)[C@H](Cc1ccccc1)NC(=O)[C@H](CO)NC(=O)CNC(=O)[C@H](CC(=O)O)NC(=O)CNC(=O)[C@@H](N)Cc1c[nH]cn1)C(=O)N[C@H](Cc1ccccc1)C(=O)N[C@H](C(=O)N[C@H](C(=O)N[C@@H](CC(C)C)C(=O)N[C@@H](CC(=O)O)C(=O)N[C@@H](CC(C)C)C(=O)N[C@@H](CC(C)C)C(=O)N[C@@H](C)C(=O)N[C@@H](C)C(=O)N[C@@H](CCCNC(=N)N)C(=O)N[C@@H](CC(=O)O)C(=O)N[C@@H](Cc1ccccc1)C(=O)N[C@H](C(=O)N[C@@H](CC(N)=O)C(=O)N[C@@H](Cc1c[nH]c2ccccc12)C(=O)N[C@@H](CC(C)C)C(=O)N[C@H](C(=O)N[C@@H](CCC(N)=O)C(=O)N[C@H](C(=O)N[C@@H](CCCCN)C(=O)N[C@H](C(=O)N[C@H](C(=O)N[C@@H](CC(=O)O)C(N)=O)C(C)O)C(C)CC)C(C)O)C(C)CC)C(C)CC)C(C)CC)C(C)O", "note": "(stereo partly drawn) [apraglutide, L-histidyl-glycyl-L-aspartyl-glycyl-L-seryl-L-phenylalanyl-L-seryl-L-aspartyl-L-glutamyl-L-norleucyl-D-phenylalanyl-L-threonyl-Lisoleucyl-L-leucyl-L-aspartyl-L-leucyl-L-leucyl-L-alanyl-L-alanyl-L-arginyl-L-aspartyl-L-phenylalanyl-L-isoleucyl-L-asparaginyl-Ltryptophanyl-L-leucyl-L-isoleucyl-L-glutaminyl-L-threonyl-L-lysyl-L-isoleucyl-L-threonyl-Laspartic acid amide] (H-HGDGSFSDE[Nle][dF][Thr(3ξ)][Ile(3ξ)]LDLLAARDF[Ile(3ξ)]NWL[Ile(3ξ)]Q[Thr(3ξ)]K[Ile(3ξ)][Thr(3ξ)]D-NH2)", "values": [{"measurement": "Tmax", "setting": "[1]; SBS-IF patients, SC, read-out: Time of maximum mean plasma concentration after dosing", "result": 72, "unit": "h"}, {"measurement": "level at 168 h", "setting": "[1]; 5 mg treatment period", "result": 4.5, "unit": "ng/mL"}, {"measurement": "level at 168 h", "setting": "[1]; 10 mg treatment period", "result": 8.9, "unit": "ng/mL"}, {"measurement": "Difference between mean Rmax over the whole trial and Rmax after last dose", "setting": "[2]; 1 mg", "result": 0.1016, "unit": "µg/mL"}, {"measurement": "Bristol stool scale with zeroes set to missing, estimate of the difference", "setting": "[2]; 1 mg - 5 mg", "result": 0.2}, {"measurement": "Bristol stool scale, estimate of the difference", "setting": "[2]; 1 mg - 5 mg", "result": "−0.1"}, {"measurement": "Citrulline, estimate of the difference", "setting": "[2]; 1 mg - 5 mg", "result": 0.9429, "unit": "µg/mL"}, {"measurement": "Weight, estimate of the difference", "setting": "[2]; 1 mg - 5 mg", "result": -0.115, "unit": "kg"}, {"measurement": "Bristol stool scale with zeroes set to missing, estimate of the difference", "setting": "[2]; 1 mg - 10 mg", "result": 0.1}, {"measurement": "Bristol stool scale, estimate of the difference", "setting": "[2]; 1 mg - 10 mg", "result": 0.3}, {"measurement": "Citrulline, estimate of the difference", "setting": "[2]; 1 mg - 10 mg", "result": 1.3198, "unit": "µg/mL"}, {"measurement": "Weight, estimate of the difference", "setting": "[2]; 1 mg - 10 mg", "result": 0.419, "unit": "kg"}, {"measurement": "No stool in the past 24 hours, number of reports", "setting": "[2]; 1 mg group (2 subjects)", "result": 6, "unit": "times"}, {"measurement": "Highest mean citrulline value following the first weekly SC dose", "setting": "[2]; 1 mg", "result": 6.3920, "unit": "µg/mL"}, {"measurement": "Citrulline Rtmax, median", "setting": "[2]; 1 mg, after last dose 6", "result": 2.0, "unit": "days"}, {"measurement": "Citrulline Rpre-dose, arithmetic mean ± SD", "setting": "[2]; 1 mg, last dose 1", "result": "5.8075 ± 1.3328", "unit": "µg/mL"}, {"measurement": "Citrulline Rpre-dose, geometric mean", "setting": "[2]; 1 mg, last dose 1", "result": 5.6723, "unit": "µg/mL"}, {"measurement": "Citrulline Rpre-dose, arithmetic mean ± SD", "setting": "[2]; 1 mg, last dose 2", "result": "6.2605 ± 1.2331", "unit": "µg/mL"}, {"measurement": "Citrulline Rpre-dose, geometric mean", "setting": "[2]; 1 mg, last dose 2", "result": 6.1526, "unit": "µg/mL"}, {"measurement": "Citrulline Rpre-dose, arithmetic mean ± SD", "setting": "[2]; 1 mg, last dose 3", "result": "6.4913 ± 1.8297", "unit": "µg/mL"}, {"measurement": "Citrulline Rpre-dose, geometric mean", "setting": "[2]; 1 mg, last dose 3", "result": 6.2752, "unit": "µg/mL"}, {"measurement": "Citrulline Rpre-dose, arithmetic mean ± SD", "setting": "[2]; 1 mg, last dose 4", "result": "6.0050 ± 1.5790", "unit": "µg/mL"}, {"measurement": "Citrulline Rpre-dose, geometric mean", "setting": "[2]; 1 mg, last dose 4", "result": 5.8213, "unit": "µg/mL"}, {"measurement": "Citrulline Rpre-dose, arithmetic mean ± SD", "setting": "[2]; 1 mg, last dose 5", "result": "6.4128 ± 1.8032", "unit": "µg/mL"}, {"measurement": "Citrulline Rpre-dose, geometric mean", "setting": "[2]; 1 mg, last dose 5", "result": 6.2097, "unit": "µg/mL"}, {"measurement": "Citrulline Rmax, arithmetic mean ± SD", "setting": "[2]; 1 mg, last dose 6", "result": 7.1702, "unit": "µg/mL"}, {"measurement": "Citrulline Rmax, geometric mean", "setting": "[2]; 1 mg, last dose 6", "result": 7.0069, "unit": "µg/mL"}, {"measurement": "Citrulline Rpre-dose, arithmetic mean ± SD", "setting": "[2]; 1 mg, last dose 6", "result": "6.3120 ± 1.6694", "unit": "µg/mL"}, {"measurement": "Citrulline Rpre-dose, geometric mean", "setting": "[2]; 1 mg, last dose 6", "result": 6.1166, "unit": "µg/mL"}, {"measurement": "Citrulline Rmax, arithmetic mean ± SD", "setting": "[2]; 1 mg, last dose 6, listed as Apraglutide", "result": "7.1702 ± 1.6611", "unit": "µg/mL"}, {"measurement": "Citrulline Rmax, arithmetic mean ± SD", "setting": "[2]; [3]", "result": "7.2718 ± 1.6959", "unit": "µg/mL"}, {"measurement": "Citrulline Rmax, geometric mean", "setting": "[2]; [3]", "result": 7.1036, "unit": "µg/mL"}, {"measurement": "Citrulline Rtmax, median", "setting": "[2]; 1 mg, whole trial period, from first dose", "result": 35.9, "unit": "days"}, {"measurement": "Difference between mean Rmax over the whole trial and Rmax after last dose", "setting": "[2]; 5 mg", "result": 0.0973, "unit": "µg/mL"}, {"measurement": "Bristol stool scale with zeroes set to missing, estimate of the difference", "setting": "[2]; 5 mg - 10 mg", "result": "−0.0"}, {"measurement": "Bristol stool scale, estimate of the difference", "setting": "[2]; 5 mg - 10 mg", "result": 0.5}, {"measurement": "Citrulline, estimate of the difference", "setting": "[2]; 5 mg - 10 mg", "result": 0.3769, "unit": "µg/mL"}, {"measurement": "Weight, estimate of the difference", "setting": "[2]; 5 mg - 10 mg", "result": 0.534, "unit": "kg"}, {"measurement": "No stool in the past 24 hours, number of reports", "setting": "[2]; 5 mg group (4 subjects)", "result": 13, "unit": "times"}, {"measurement": "Highest mean citrulline value following the first weekly SC dose", "setting": "[2]; 5 mg", "result": 7.1933, "unit": "µg/mL"}, {"measurement": "Citrulline Rtmax, median", "setting": "[2]; 5 mg, after last dose 6", "result": 3.9, "unit": "days"}, {"measurement": "Citrulline Rpre-dose, arithmetic mean ± SD", "setting": "[2]; 5 mg, last dose 1", "result": "6.7695 ± 1.5288", "unit": "µg/mL"}, {"measurement": "Citrulline Rpre-dose, geometric mean", "setting": "[2]; 5 mg, last dose 1", "result": 6.5967, "unit": "µg/mL"}, {"measurement": "Citrulline Rpre-dose, arithmetic mean ± SD", "setting": "[2]; 5 mg, last dose 2", "result": "7.0082 ± 1.1330", "unit": "µg/mL"}, {"measurement": "Citrulline Rpre-dose, geometric mean", "setting": "[2]; 5 mg, last dose 2", "result": 6.9208, "unit": "µg/mL"}, {"measurement": "Citrulline Rpre-dose, arithmetic mean ± SD", "setting": "[2]; 5 mg, last dose 3", "result": "6.6155 ± 1.2790", "unit": "µg/mL"}, {"measurement": "Citrulline Rpre-dose, geometric mean", "setting": "[2]; 5 mg, last dose 3", "result": 6.5109, "unit": "µg/mL"}, {"measurement": "Citrulline Rpre-dose, arithmetic mean ± SD", "setting": "[2]; 5 mg, last dose 4", "result": "6.6227 ± 1.2247", "unit": "µg/mL"}, {"measurement": "Citrulline Rpre-dose, geometric mean", "setting": "[2]; 5 mg, last dose 4", "result": 6.5313, "unit": "µg/mL"}, {"measurement": "Citrulline Rpre-dose, arithmetic mean ± SD", "setting": "[2]; 5 mg, last dose 5", "result": "6.8307 ± 1.2369", "unit": "µg/mL"}]}]}
